According to PubChem BioAssay AID1963959 (Molecular Pharmacology Branch, DTP, NCI, 2024):

Test system: T-47D spheroids with HUVEC/MSC, viability
Assay: Anticancer human tumor T-47D cell line growth inhibition [PI3K];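 note: spheroids exposed to agents for seven days before reading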;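 for viability, T/C: percent of DMSO vehicle control luminescence so 100% = untreated growth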
Conditions: for IC50: curve of first compound; for viability, T/C: stronger effect = lower value
Procedure, shortened: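 Stroma-containing spheroids: tumor line, pooled-donor HUVEC, hMSC. Treatments: targeted agents with PI3K inhibitors. Dosing: clinically relevant, half-log spacing, 10 microM ceiling without known Cmax. Read-out: cell viability.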

CNC(=O)c1ccc(N2C(=S)N(c3ccc(C#N)c(C(F)(F)F)c3)C(=O)C2(C)C)cc1F + COc1c(OCCCN2CCOCC2)ccc2c3n(c(=NC(=O)c4cnc(N)nc4)nc12)CCN3
IC50 (second compound 0.00316 µM): > 10 µM | IC50 (second compound 0.01 µM): > 10 µM | IC50 (second compound 0.0316 µM): > 10 µM | IC50 (second compound 0.1 µM): < 0.0316 µM | IC50 (second compound 0.316 µM): < 0.0316 µM | IC50 (second compound 1 µM): < 0.0316 µM | viability, T/C (second compound 0.00316 µM, first compound 0.0316 µM): 122% | viability, T/C (second compound 0.00316 µM, first compound 0.1 µM): 84.3% | viability, T/C (second compound 0.00316 µM, first compound 0.316 µM): 87.8% | viability, T/C (second compound 0.00316 µM, first compound 1 µM): 81.1% | viability, T/C (second compound 0.00316 µM, first compound 3.16 µM): 98.8% | viability, T/C (second compound 0.00316 µM, first compound 10 µM): 86.5% | viability, T/C (second compound 0.01 µM, first compound 0.0316 µM): 102% | viability, T/C (second compound 0.01 µM, first compound 0.1 µM): 90.3% | viability, T/C (second compound 0.01 µM, first compound 0.316 µM): 105% | viability, T/C (second compound 0.01 µM, first compound 1 µM): 104% | viability, T/C (second compound 0.01 µM, first compound 3.16 µM): 81.3% | viability, T/C (second compound 0.01 µM, first compound 10 µM): 91.2% | viability, T/C (second compound 0.0316 µM, first compound 0.0316 µM): 72.3% | viability, T/C (second compound 0.0316 µM, first compound 0.1 µM): 80% | viability, T/C (second compound 0.0316 µM, first compound 0.316 µM): 72.1% | viability, T/C (second compound 0.0316 µM, first compound 1 µM): 69.1% | viability, T/C (second compound 0.0316 µM, first compound 3.16 µM): 64.4% | viability, T/C (second compound 0.0316 µM, first compound 10 µM): 62% | viability, T/C (second compound 0.1 µM, first compound 0.0316 µM): 37.6% | viability, T/C (second compound 0.1 µM, first compound 0.1 µM): 44.8% | viability, T/C (second compound 0.1 µM, first compound 0.316 µM): 40% | viability, T/C (second compound 0.1 µM, first compound 1 µM): 46% | viability, T/C (second compound 0.1 µM, first compound 3.16 µM): 37.2% | viability, T/C (second compound 0.1 µM, first compound 10 µM): 43.8% | viability, T/C (second compound 0.316 µM, first compound 0.0316 µM): 18.9% | viability, T/C (second compound 0.316 µM, first compound 0.1 µM): 21.8% | viability, T/C (second compound 0.316 µM, first compound 0.316 µM): 16.7% | viability, T/C (second compound 0.316 µM, first compound 1 µM): 19.6% | viability, T/C (second compound 0.316 µM, first compound 3.16 µM): 18.1% | viability, T/C (second compound 0.316 µM, first compound 10 µM): 14.9% | viability, T/C (second compound 1 µM, first compound 0.0316 µM): 5.78% | viability, T/C (second compound 1 µM, first compound 0.1 µM): 6.91% | viability, T/C (second compound 1 µM, first compound 0.316 µM): 7.72% | viability, T/C (second compound 1 µM, first compound 1 µM): 3.81% | viability, T/C (second compound 1 µM, first compound 3.16 µM): 3.1% | viability, T/C (second compound 1 µM, first compound 10 µM): 4.67%

Cn1cnc2c(F)c(Nc3ccc(Br)cc3Cl)c(C(=O)NOCCO)cc21 + COc1c(OCCCN2CCOCC2)ccc2c3n(c(=NC(=O)c4cnc(N)nc4)nc12)CCN3
IC50 (second compound 0.00316 µM): > 3 µM | IC50 (second compound 0.01 µM): > 3 µM | IC50 (second compound 0.0316 µM): > 3 µM | IC50 (second compound 0.1 µM): < 0.00949 µM | IC50 (second compound 0.316 µM): < 0.00949 µM | IC50 (second compound 1 µM): < 0.00949 µM | viability, T/C (second compound 0.00316 µM, first compound 0.00949 µM): 97.1% | viability, T/C (second compound 0.00316 µM, first compound 0.03 µM): 88.8% | viability, T/C (second compound 0.00316 µM, first compound 0.0949 µM): 88.3% | viability, T/C (second compound 0.00316 µM, first compound 0.3 µM): 94.8% | viability, T/C (second compound 0.00316 µM, first compound 0.949 µM): 92.5% | viability, T/C (second compound 0.00316 µM, first compound 3 µM): 76.6% | viability, T/C (second compound 0.01 µM, first compound 0.00949 µM): 89.5% | viability, T/C (second compound 0.01 µM, first compound 0.03 µM): 77.5% | viability, T/C (second compound 0.01 µM, first compound 0.0949 µM): 102% | viability, T/C (second compound 0.01 µM, first compound 0.3 µM): 66% | viability, T/C (second compound 0.01 µM, first compound 0.949 µM): 85.6% | viability, T/C (second compound 0.01 µM, first compound 3 µM): 92.9% | viability, T/C (second compound 0.0316 µM, first compound 0.00949 µM): 64% | viability, T/C (second compound 0.0316 µM, first compound 0.03 µM): 51.7% | viability, T/C (second compound 0.0316 µM, first compound 0.0949 µM): 64.6% | viability, T/C (second compound 0.0316 µM, first compound 0.3 µM): 57.8% | viability, T/C (second compound 0.0316 µM, first compound 0.949 µM): 71.9% | viability, T/C (second compound 0.0316 µM, first compound 3 µM): 67.7% | viability, T/C (second compound 0.1 µM, first compound 0.00949 µM): 41.4% | viability, T/C (second compound 0.1 µM, first compound 0.03 µM): 34.3% | viability, T/C (second compound 0.1 µM, first compound 0.0949 µM): 32.9% | viability, T/C (second compound 0.1 µM, first compound 0.3 µM): 38.7% | viability, T/C (second compound 0.1 µM, first compound 0.949 µM): 41.5% | viability, T/C (second compound 0.1 µM, first compound 3 µM): 35.4% | viability, T/C (second compound 0.316 µM, first compound 0.00949 µM): 12.8% | viability, T/C (second compound 0.316 µM, first compound 0.03 µM): 16.8% | viability, T/C (second compound 0.316 µM, first compound 0.0949 µM): 16.7% | viability, T/C (second compound 0.316 µM, first compound 0.3 µM): 13.7% | viability, T/C (second compound 0.316 µM, first compound 0.949 µM): 20.4% | viability, T/C (second compound 0.316 µM, first compound 3 µM): 14.4% | viability, T/C (second compound 1 µM, first compound 0.00949 µM): 6.16% | viability, T/C (second compound 1 µM, first compound 0.03 µM): 4.64% | viability, T/C (second compound 1 µM, first compound 0.0949 µM): 7.54% | viability, T/C (second compound 1 µM, first compound 0.3 µM): 7.14% | viability, T/C (second compound 1 µM, first compound 0.949 µM): 7.29% | viability, T/C (second compound 1 µM, first compound 3 µM): 6.05%
